Laboratory results: US8911798B2, “Multivitamin and mineral compositions for individuals having renal disease” (priority 2007, dated 2014)

Tests used:
[1] = daily doses higher than 1 mg/day; cited from earlier work
[2] = Cholecalciferol dosing, calciuria and hypercalcemia in renal patients; type: in vivo, human
Source text: The inventor has discovered that these therapeutic approaches are obsolete today because of the risk of prolonged hypercalcemia resulting from the long half-life of 25-(OH)-D3 in renal patients. […] Likewise, the inventor has discovered that repletion of vitamin D to achieve a plasma 25-(OH)-D concentration in the 80th percentile or higher of normal clinical values prevents renal osteodystrophy, Looser zones, and sub-periosteal resorption, despite the persistence of hypocalcemia, hyperphosphatemia and metabolic acidosis, or the use of calcium-aluminum free phosphate binders such as sevelamer salts. Therefore, a composition of the invention comprises 375 to 425 IU of vitamin D and a preferred embodiment of a composition of the invention provides 400 IU of vitamin D.

[3] = cited from earlier work
[4] = 43 maintenance hemodialysis patients, low flux/low efficiency dialyzers; 200 mg post-dialysis 2-3 times per week (400-600 mg weekly) orally; cited from earlier work
[5] = up to 200 mg/day; cited from earlier work
[6] = blood flow of 200-300 mL/min; cited from earlier work
[7] = 400 μg/L in dialysate, 6 months; cited from earlier work
[8] = in vivo; cited from earlier work
[9] = daily oral 25 mg elemental zinc, 6 months; from 81±8 mcg/dL; normal controls 111±10 μg/dL; p<0.005; cited from earlier work
[10] = zinc supplementation, dialysis patients; cited from earlier work
[11] = cited from earlier work; remark: listed apart in the source
[12] = 15 days of treatment with 300 mg/day; hemodialysis patients; cited from earlier work
[13] = single oral dose of 1200 IU; cited from earlier work
[14] = Daily vitamin K over several years in the general population; type: in vivo, human; conditions: 1 mg dose each day over several years
Source text: The inventor has discovered that the 10 mcg dose of vitamin K that is provided in conventional multivitamin preparations is too low. […] A composition of their invention comprises vitamin K in doses that are appropriate for subjects with renal disease and provides 25 to 1000 mcg of vitamin K, and a preferred embodiment of a composition of the invention provides 50 mcg of vitamin K.

Nc1nc2ncc(CNc3ccc(C(=O)N[C@@H](CCC(=O)O)C(=O)O)cc3)nc2c(=O)[nH]1 [Folic acid]
renal patients in whom plasma homocysteine levels are lowered [1]: up to 30%

C=C1CC[C@H](O)C/C1=C/C=C1\CCC[C@]2(C)[C@@H]([C@H](C)CCCC(C)C)CC[C@@H]12 [cholecalciferol]
calciuria and hypercalcemia ([2]; dose of 800 IU or 20 mcg, pre-dialysis patients): does not cause an increase in calciuria in pre-dialysis patients nor hypercalcemia | calciuria and hypercalcemia ([2]; doses in excess of 2400 IU or 60 mcg/day): these complications are seen

[Se] [selenium]
APACHE III score versus untreated group ([3]; SIRS patients): significantly lower | time to normalization of serum selenium levels and GSH-Px activity ([3]; Se treated SIRS patients): ≤ 3 days | overall mortality ([3]; Se+ group, 52% in the Se− group): 33.5%

O=C1O[C@H]([C@@H](O)CO)C(O)=C1O [vitamin C, ascorbic acid]
patients with decreased plasma vitamin C levels / serum levels not maintained despite supplement [4]: 27% | bioavailability [5]: ~100% | clearance of vitamin C (ascorbate) during hemodialysis [6]: about 100 mL/min

[Zn] [zinc]
intracellular content of ATP in lymphocytes [7]: increased intracellular content of ATP in lymphocytes | serum zinc level [7]: significant increase in serum zinc level | plasma level at which zinc toxicity is seen [8]: around 700 mcg/dL | plasma Zn levels after treatment [9]: 110 ± 14 µg/dL | patients with plasma testosterone levels increased into the normal range [10]: 50%

Fe(III) hydroxide sucrose complex
hemodialysis patients with bleomycin-detectable free iron in the circulation ([11]; 100 mg intravenously): 8 of the 10 | plasma total peroxide and malondialdehyde concentrations ([11]; within ten minutes following infusion of 100 mg): rise in plasma total peroxide and malondialdehyde concentrations

vitamin E
platelet vitamin E levels [12]: increased to the normal range | oxidative stress induced by intravenous iron [13]: effective in attenuating the oxidative stress

vitamin K
untoward effects [14]: no untoward effects
